Where “and” joins values, the source holds several entries; their conditions need not be identical. Identical values can stand only once.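 The compound was tested at five concentrations on cells cultured in 96-well plates, with a 48-hour exposure period. At the GI50, growth is halved. Definition used: TGI = concentration required for complete inhibition of growth.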
Experiments:
Test in all cases: NCI tumour cell line growth inhibition, 48 h
DMS 114 small cell lung = system: DMS 114 small cell lung
DMS 273 small cell lung = system: DMS 273 small cell lung
HOP-18 NSCLC = system: HOP-18 NSCLC
KM20L2 colon = system: KM20L2 colon
LXFL 529 NSCLC = system: LXFL 529 NSCLC
SNB-78 CNS = system: SNB-78 CNS
XF 498 CNS = system: XF 498 CNS
MDA-N = system: MDA-N
RXF-631 renal = system: RXF-631 renal
P388 leukemia = system: P388 leukemia
P388/ADR leukemia = system: P388/ADR leukemia

Row | SMILES | TGI (DMS 114 small cell lung) | TGI (DMS 273 small cell lung) | TGI (HOP-18 NSCLC) | TGI (KM20L2 colon) | TGI (LXFL 529 NSCLC) | TGI (SNB-78 CNS) | TGI (XF 498 CNS) | TGI (MDA-N) | also measured
1 | CC(C)(CN1C(=O)C(Cl)=C(Cl)C1=O)CN1C(=O)C(Cl)=C(Cl)C1=O | 25.2 µM | 26.8 µM | 36.1 µM | 40 µM | 19.7 µM | 45.1 µM | – | – | –
2 | COc1cc(C2c3cc4c(cc3[C@@H](NCCN(C)C)C3COC(=O)[C@H]23)OCO4)cc(OC)c1O (stereo not given in full) | 0.533 µM and 2.11 µM | 0.803 µM and 1.36 µM | 2.63 µM and 6.98 µM | 2.16 µM and 3.62 µM | 6.9 µM and 13.2 µM | 68.3 µM and 77.8 µM | 0.978 µM and 2.02 µM | – | GI50 (DMS 114 small cell lung): 0.0491 µM and 0.347 µM; GI50 (DMS 273 small cell lung): 0.0137 µM and 0.0329 µM; GI50 (HOP-18 NSCLC): 0.108 µM and 0.428 µM; GI50 (KM20L2 colon): 0.425 µM and 1.14 µM; GI50 (SNB-78 CNS): 1.24 µM and 3.25 µM
3 | Oc1ccc(Br)cc1C=Nc1cccc(C(F)(F)F)c1 | – | – | – | – | – | – | – | > 100 µM | –
4 | C=C1C[C@H]2C=Nc3cc(OCCCOc4cc5c(cc4OC)C(=O)N4CC(=C)C[C@H]4C=N5)c(OC)cc3C(=O)N2C1 | – | – | – | – | – | – | – | 0.0256 µM | –
5 | CCCCC1=CSC(c2ccccc2)=C(c2ccccc2)S1 | > 100 µM | > 100 µM | > 100 µM | > 100 µM | > 100 µM | > 100 µM | – | – | TGI (RXF-631 renal): > 100 µM
6 | CC(=O)OCC1OC(n2c(=S)n(-c3ccc([N+](=O)[O-])cc3)c(=O)c3ccccc32)C(OC(C)=O)C(OC(C)=O)C1OC(C)=O (stereo not given) | > 100 µM and 53.8 µM | 57.3 µM | 64.4 µM | > 100 µM and 87.7 µM | 39.9 µM and 50.6 µM | > 100 µM and 74.5 µM | – | 82.3 µM | GI50 (DMS 114 small cell lung): 23.7 µM and 18.1 µM; GI50 (LXFL 529 NSCLC): 11.3 µM and 17.4 µM; TGI (RXF-631 renal): 57.7 µM and 51 µM; GI50 (SNB-78 CNS): 34.8 µM and 24.1 µM
7 | Cc1ccc(NC(=O)CCc2nc(=S)[nH][nH]2)cc1 | > 100 µM | > 100 µM | > 100 µM | > 100 µM | > 100 µM | > 100 µM | > 100 µM | – | TGI (RXF-631 renal): > 100 µM
8 | O=C(O)C1=C/C(=C(/c2ccccc2)c2cc(C(=O)O)c(O)c3ccccc23)c2ccccc2C1=O | – | – | – | – | – | – | – | > 100 µM | –
9 | CN=c1ss/c(=N\C(=S)N(C)C)n1C | > 100 µM | > 100 µM | > 100 µM | > 100 µM | > 100 µM | > 100 µM | > 100 µM | – | –
10 | COc1ccc(-c2cc(=O)c3c(O)c(OC)c(OC)c(OC)c3o2)cc1OC | – | – | – | – | – | – | – | > 100 µM | –
11 | COc1cc[c]([Sn]([c]2ccc(OC)cc2)([c]2ccc(OC)cc2)[c]2ccc(OC)cc2)cc1 | > 100 µM | 96.5 µM | 21.1 µM | 47 µM | 36.4 µM | 71 µM | > 100 µM | – | GI50 (DMS 114 small cell lung): 23.5 µM; GI50 (DMS 273 small cell lung): 25.2 µM; GI50 (HOP-18 NSCLC): 3.81 µM; GI50 (KM20L2 colon): 18.2 µM; GI50 (LXFL 529 NSCLC): 15.8 µM; GI50 (SNB-78 CNS): 23.7 µM; GI50 (XF 498 CNS): > 100 µM
12 | Nc1nnc2c(-c3ccccc3)[nH]nc2n1 | > 100 µM | > 100 µM | – | > 100 µM | > 100 µM | > 100 µM | – | – | –
13 | COC1C2C[C@@H](O)CCC2C(C(=O)OCCl)C[C@H]1O (stereo not given in full) | > 100 µM | > 100 µM | > 100 µM | > 100 µM | > 100 µM | > 100 µM | – | – | TGI (RXF-631 renal): > 100 µM
14 | Cc1ccc(CNc2ccc(Br)cc2)cc1 | – | – | – | – | – | – | – | > 100 µM | –
15 | COC(=O)NC1C(C)OC(OC2C/C=C(/C)C3C=CC4C(OC5CC(OC6CCC(OC7CC(O)C(OC8CCC(O)C(C)O8)C(C)O7)C(C)O6)C(OC(C)=O)C(C)O5)C(C)CC(C)C4C3(C)/C(O)=C3/C(=O)OC4(CC(C=O)=CC(O)C4/C=C\2C)C3=O)CC1(C)[N+](=O)[O-] (stereo not given) | 1.76 µM and 0.494 µM | 3.73 µM and 3.26 µM | 14.5 µM and 3.62 µM | 3.68 µM and 1.42 µM | 1.97 µM | 15.4 µM and 26.7 µM | 0.5 µM and 2.06 µM | 3.52 µM | GI50 (DMS 114 small cell lung): 0.19 µM; GI50 (DMS 273 small cell lung): 0.414 µM; GI50 (KM20L2 colon): 0.365 µM; TGI (P388 leukemia): 2.05 µM; TGI (P388/ADR leukemia): 17.3 µM; TGI (RXF-631 renal): 10.8 µM; GI50 (SNB-78 CNS): 0.59 µM; GI50 (XF 498 CNS): 0.385 µM
16 | NC(=O)c1ccc2c(c1)-c1nc-2nc2[n-]c(nc3nc(nc4[n-]c(n1)c1ccc(C(N)=O)cc41)-c1ccc(C(N)=O)cc1-3)c1ccc(C(N)=O)cc21.[Co+2] | > 50 µM | > 50 µM | > 50 µM | > 50 µM | > 50 µM | > 50 µM | – | – | GI50 (DMS 114 small cell lung): 19.6 µM; GI50 (DMS 273 small cell lung): > 50 µM; GI50 (HOP-18 NSCLC): > 50 µM; GI50 (KM20L2 colon): > 50 µM; GI50 (LXFL 529 NSCLC): 35.9 µM; GI50 (RXF-631 renal): > 50 µM; TGI (RXF-631 renal): > 50 µM; GI50 (SNB-78 CNS): > 50 µM
17 | Nc1ccc2n[se]nc2c1 | > 100 µM | > 100 µM | > 100 µM | > 100 µM | > 100 µM | > 100 µM | > 100 µM | – | TGI (RXF-631 renal): > 100 µM
18 | CCCn1c2c(c3ccccc3c1=O)C(=O)c1ccccc1-2 | – | – | – | – | – | – | – | > 100 µM | –

Row | SMILES | TGI (DMS 114 small cell lung) | TGI (DMS 273 small cell lung) | TGI (HOP-18 NSCLC) | TGI (KM20L2 colon) | TGI (LXFL 529 NSCLC) | TGI (SNB-78 CNS) | TGI (XF 498 CNS) | TGI (MDA-N) | also measured
19 | O=S1(=O)N2CN3CN(C2)CN1C3 | 55.3 µM | > 31.6 µM and 142 µM | > 86.4 µM and 91.6 µM | 180 µM | 34.1 µM | 118 µM | – | – | GI50 (DMS 273 small cell lung): 32.8 µM; GI50 (HOP-18 NSCLC): 24.7 µM; GI50 (KM20L2 colon): 37.1 µM; TGI (P388 leukemia): 47.6 µM; TGI (P388/ADR leukemia): 44 µM
20 | CC1CC2C3CCC4=CC(=O)C=CC4(C)C3(F)C(O)CC2(C)C1(O)C(=O)COP(=O)(O)O (stereo not given) | – | > 100 µM | > 100 µM | > 100 µM | > 100 µM | > 100 µM | > 100 µM | 47.4 µM | –
21 | CN(C)CCNC(=O)c1cccc2c1nc(-c1ccc(F)cc1)c1ccccc12 | 19.2 µM | 13 µM | 27.4 µM | – | – | 25.7 µM | – | – | –
22 | Cc1ccccc1N=Nc1c(O)ccc2ccccc12 | – | – | – | – | – | – | – | > 100 µM | –
23 | O=C1c2ccccc2C(=O)c2cc3c(cc21)CS(=O)C3 | > 100 µM | > 100 µM | > 100 µM | > 100 µM | > 100 µM | – | – | – | –
24 | Cc1nc(N)nc(N)c1CCCCc1ccc(N)cc1 | – | – | – | 18.2 µM | 20.4 µM | 27.2 µM | 23.6 µM | – | –
25 | O=C(c1ccc(O)cc1O)C1C(c2ccc(O)cc2)OC(c2ccc(O)cc2)C1C(=O)c1ccc(O)cc1O (stereo not given) | – | 29.5 µM | – | > 100 µM | 34.7 µM | > 100 µM | 32.3 µM | – | –
26 | O=C1CC2OCC=C3CN4CCC56c7ccccc7N1C5C2C3CC46O (stereo not given) | – | – | – | – | – | – | – | > 100 µM | –
27 | CC1(C)CCC(Sc2ccccc2)O1 (stereo not given) | > 100 µM | > 100 µM | – | > 100 µM | > 100 µM | > 100 µM | > 100 µM | – | –
28 | CCCNC(=O)Nc1c([N+](=O)[O-])cc(C(F)(F)F)cc1[N+](=O)[O-] | – | > 100 µM | – | 61.4 µM | > 100 µM | > 100 µM | > 100 µM | – | TGI (RXF-631 renal): > 100 µM
29 | COC(=O)C(=O)Cc1nc2ccccc2s1 | > 100 µM | > 100 µM | > 100 µM | > 100 µM | > 100 µM | > 100 µM | – | – | –
30 | CCOC(=O)C(C)(NC(=O)c1ccc(NCc2ccc3nc(NC(=O)c4ccccc4)nc(NC(=O)c4ccccc4)c3c2)cc1)C(=O)OCC | 42 µM | 27.5 µM | > 100 µM | 85.3 µM | – | 45.4 µM | – | – | TGI (RXF-631 renal): 51 µM
31 | COc1cccc2c1-c1nc(N)c3c(OC)cccc3c1C2=O | – | – | – | – | – | – | – | > 100 µM | –
32 | O=C(O/N=C1\CCCC\C1=C/c1ccccc1)c1ccc([N+](=O)[O-])cc1 | > 100 µM | > 100 µM | > 100 µM | > 100 µM | > 100 µM | > 100 µM | – | – | TGI (RXF-631 renal): > 100 µM
33 | C[C@H]1CC[P+](Cc2ccccc2)(c2ccccc2)C1 (stereo not given in full) | > 100 µM | > 100 µM | > 100 µM | > 100 µM | > 100 µM | – | – | – | –
34 | COC1=C(N)C(=O)c2nc(-c3nc(C(=O)O)c(C)c(-c4ccc(OC)c(OC)c4O)c3N)ccc2C1=O | 0.0118 µM | 0.0194 µM | 0.0395 µM | 1.12 µM and 0.184 µM | 0.0206 µM | 0.0324 µM and 0.0996 µM | 0.0179 µM | 0.0269 µM and 0.0153 µM | GI50 (MDA-N): 0.0117 µM; TGI (P388 leukemia): 0.473 µM; TGI (P388/ADR leukemia): 0.402 µM
35 | CC(=O)C1CCN(c2ccccc2)C1 (stereo not given) | > 100 µM | > 100 µM | – | – | – | > 100 µM | > 100 µM | – | –
36 | NC1NC=NC2C1N=CN2C1OC(CO)C2[O][Sn][O]C21 (stereo not given) | > 100 µM | > 100 µM | > 100 µM | > 100 µM | > 100 µM | > 100 µM | 52.7 µM | – | GI50 (DMS 114 small cell lung): > 100 µM; GI50 (DMS 273 small cell lung): > 100 µM; GI50 (HOP-18 NSCLC): > 100 µM; GI50 (KM20L2 colon): > 100 µM; GI50 (LXFL 529 NSCLC): > 100 µM; GI50 (SNB-78 CNS): > 100 µM; GI50 (XF 498 CNS): 1.15 µM
